Test results taken from patent publication US20160009693A1, “HERBICIDAL COMPOUNDS” (SYNGENTA LIMITED, priority 2013, published 2016).

Tested on: Setaria faberi (SETFA)
Assay: Herbicidal glasshouse test, post-emergence, SETFA
Type: in vivo
Details: applied at 1000 g/h, evaluated after 13 days
Procedure: (§1) Seeds of a variety of test species are sown in standard soil in pots (Alopecurus myosuroides (ALOMY), Setaria faberi (SETFA), Echinochloa crus-galli (ECHCG), Solanum nigrum (SOLNI), Amaranthus retoflexus (AMARE), Ipomoea hederacea (IPOHE)). After cultivation for one day (pre-emergence) or after 8 days cultivation (post-emergence) under controlled conditions in a glasshouse (at 24/16° C., day/night; 14 hours light; 65% humidity), the plants are sprayed with an aqueous spray solution derived from the formulation of the technical active ingredient in acetone / water (50:50) solution containing 0.5% Tween 20 (polyoxyethelyene sorbitan monolaurate, CAS RN 9005-64-5). […] The test plants are then grown in a glasshouse under controlled conditions in a glasshouse (at 24/16° C., day/night; 14 hours light; 65% humidity) and watered twice daily. After 13 days for pre and post-emergence, the test is evaluated for the percentage damage caused to the plant. The biological activities are shown in the following table on a five point scale (5=80-100%; 4=60-79%; 3=40-59%; 2=20-39%; 1=0-19%).

SMILES	POST Application SETFA, percentage damage (five point scale)
CCc1ccc(-n2c(=O)c(C(=O)Nc3nnnn3C)nn(C)c2=O)cc1 [Compound 1.006]	5 (5=80-100%)
C=CCn1nc(C(=O)Nc2nnnn2C)c(=O)n(-c2cccc(F)c2)c1=O [Compound 1.007]	5 (5=80-100%)
Cn1nnnc1NC(=O)c1nn(C)c(=O)n(-c2ccc(F)c(Cl)c2)c1=O [Compound 1.008]	5 (5=80-100%)
CSc1ccc(-n2c(=O)c(C(=O)Nc3nnnn3C)nn(C)c2=O)cc1 [Compound 1.009]	5 (5=80-100%)
CC(Cl)c1ccc(-n2c(=O)c(C(=O)Nc3nnnn3C)nn(C)c2=O)cc1 (stereo not drawn) [Compound 1.010]	5 (5=80-100%)

Tested on: Amaranthus retoflexus (AMARE)
Assay: Herbicidal glasshouse test, post-emergence, AMARE
Type: in vivo
Details: applied at 1000 g/h, evaluated after 13 days
Procedure: as §1

SMILES	POST Application AMARE, percentage damage (five point scale)
CCc1ccc(-n2c(=O)c(C(=O)Nc3nnnn3C)nn(C)c2=O)cc1 [Compound 1.006]	5 (5=80-100%)
C=CCn1nc(C(=O)Nc2nnnn2C)c(=O)n(-c2cccc(F)c2)c1=O [Compound 1.007]	5 (5=80-100%)
Cn1nnnc1NC(=O)c1nn(C)c(=O)n(-c2ccc(F)c(Cl)c2)c1=O [Compound 1.008]	5 (5=80-100%)
CSc1ccc(-n2c(=O)c(C(=O)Nc3nnnn3C)nn(C)c2=O)cc1 [Compound 1.009]	5 (5=80-100%)
CC(Cl)c1ccc(-n2c(=O)c(C(=O)Nc3nnnn3C)nn(C)c2=O)cc1 (stereo not drawn) [Compound 1.010]	5 (5=80-100%)

Tested on: Echinochloa crus-galli (ECHCG)
Assay: Herbicidal glasshouse test, pre-emergence, ECHCG
Type: in vivo
Details: applied at 1000 g/h, evaluated after 13 days
Procedure: as §1

SMILES	PRE Application ECHCG, percentage damage (five point scale)
CCc1ccc(-n2c(=O)c(C(=O)Nc3nnnn3C)nn(C)c2=O)cc1 [Compound 1.006]	5 (5=80-100%)
C=CCn1nc(C(=O)Nc2nnnn2C)c(=O)n(-c2cccc(F)c2)c1=O [Compound 1.007]	5 (5=80-100%)
Cn1nnnc1NC(=O)c1nn(C)c(=O)n(-c2ccc(F)c(Cl)c2)c1=O [Compound 1.008]	5 (5=80-100%)
CSc1ccc(-n2c(=O)c(C(=O)Nc3nnnn3C)nn(C)c2=O)cc1 [Compound 1.009]	2 (2=20-39%)
CC(Cl)c1ccc(-n2c(=O)c(C(=O)Nc3nnnn3C)nn(C)c2=O)cc1 (stereo not drawn) [Compound 1.010]	5 (5=80-100%)

Tested on: Solanum nigrum (SOLNI)
Assay: Herbicidal glasshouse test, pre-emergence, SOLNI
Type: in vivo
Details: applied at 1000 g/h, evaluated after 13 days
Procedure: as §1

SMILES	PRE Application SOLNI, percentage damage (five point scale)
CCc1ccc(-n2c(=O)c(C(=O)Nc3nnnn3C)nn(C)c2=O)cc1 [Compound 1.006]	5 (5=80-100%)
C=CCn1nc(C(=O)Nc2nnnn2C)c(=O)n(-c2cccc(F)c2)c1=O [Compound 1.007]	5 (5=80-100%)
Cn1nnnc1NC(=O)c1nn(C)c(=O)n(-c2ccc(F)c(Cl)c2)c1=O [Compound 1.008]	5 (5=80-100%)
CSc1ccc(-n2c(=O)c(C(=O)Nc3nnnn3C)nn(C)c2=O)cc1 [Compound 1.009]	5 (5=80-100%)
CC(Cl)c1ccc(-n2c(=O)c(C(=O)Nc3nnnn3C)nn(C)c2=O)cc1 (stereo not drawn) [Compound 1.010]	5 (5=80-100%)

Tested on: Setaria faberi (SETFA)
Assay: Herbicidal glasshouse test, pre-emergence, SETFA
Type: in vivo
Details: applied at 1000 g/h, evaluated after 13 days
Procedure: as §1

SMILES	PRE Application SETFA, percentage damage (five point scale)
CCc1ccc(-n2c(=O)c(C(=O)Nc3nnnn3C)nn(C)c2=O)cc1 [Compound 1.006]	5 (5=80-100%)
C=CCn1nc(C(=O)Nc2nnnn2C)c(=O)n(-c2cccc(F)c2)c1=O [Compound 1.007]	1 (1=0-19%)
Cn1nnnc1NC(=O)c1nn(C)c(=O)n(-c2ccc(F)c(Cl)c2)c1=O [Compound 1.008]	5 (5=80-100%)
CSc1ccc(-n2c(=O)c(C(=O)Nc3nnnn3C)nn(C)c2=O)cc1 [Compound 1.009]	1 (1=0-19%)
CC(Cl)c1ccc(-n2c(=O)c(C(=O)Nc3nnnn3C)nn(C)c2=O)cc1 (stereo not drawn) [Compound 1.010]	5 (5=80-100%)

Tested on: Alopecurus myosuroides (ALOMY)
Assay: Herbicidal glasshouse test, pre-emergence, ALOMY
Type: in vivo
Details: applied at 1000 g/h, evaluated after 13 days
Procedure: as §1

SMILES	PRE Application ALOMY, percentage damage (five point scale)
CCc1ccc(-n2c(=O)c(C(=O)Nc3nnnn3C)nn(C)c2=O)cc1 [Compound 1.006]	5 (5=80-100%)
C=CCn1nc(C(=O)Nc2nnnn2C)c(=O)n(-c2cccc(F)c2)c1=O [Compound 1.007]	2 (2=20-39%)
Cn1nnnc1NC(=O)c1nn(C)c(=O)n(-c2ccc(F)c(Cl)c2)c1=O [Compound 1.008]	5 (5=80-100%)
CSc1ccc(-n2c(=O)c(C(=O)Nc3nnnn3C)nn(C)c2=O)cc1 [Compound 1.009]	2 (2=20-39%)
CC(Cl)c1ccc(-n2c(=O)c(C(=O)Nc3nnnn3C)nn(C)c2=O)cc1 (stereo not drawn) [Compound 1.010]	5 (5=80-100%)

Tested on: Alopecurus myosuroides (ALOMY)
Assay: Herbicidal glasshouse test, post-emergence, ALOMY
Type: in vivo
Details: applied at 1000 g/h, evaluated after 13 days
Procedure: as §1

SMILES	POST Application ALOMY, percentage damage (five point scale)
CCc1ccc(-n2c(=O)c(C(=O)Nc3nnnn3C)nn(C)c2=O)cc1 [Compound 1.006]	5 (5=80-100%)
C=CCn1nc(C(=O)Nc2nnnn2C)c(=O)n(-c2cccc(F)c2)c1=O [Compound 1.007]	5 (5=80-100%)
Cn1nnnc1NC(=O)c1nn(C)c(=O)n(-c2ccc(F)c(Cl)c2)c1=O [Compound 1.008]	5 (5=80-100%)
CSc1ccc(-n2c(=O)c(C(=O)Nc3nnnn3C)nn(C)c2=O)cc1 [Compound 1.009]	5 (5=80-100%)
CC(Cl)c1ccc(-n2c(=O)c(C(=O)Nc3nnnn3C)nn(C)c2=O)cc1 (stereo not drawn) [Compound 1.010]	5 (5=80-100%)

Tested on: Ipomoea hederacea (IPOHE)
Assay: Herbicidal glasshouse test, post-emergence, IPOHE
Type: in vivo
Details: applied at 1000 g/h, evaluated after 13 days
Procedure: as §1

SMILES	POST Application IPOHE, percentage damage (five point scale)
CCc1ccc(-n2c(=O)c(C(=O)Nc3nnnn3C)nn(C)c2=O)cc1 [Compound 1.006]	5 (5=80-100%)
C=CCn1nc(C(=O)Nc2nnnn2C)c(=O)n(-c2cccc(F)c2)c1=O [Compound 1.007]	5 (5=80-100%)
Cn1nnnc1NC(=O)c1nn(C)c(=O)n(-c2ccc(F)c(Cl)c2)c1=O [Compound 1.008]	5 (5=80-100%)
CSc1ccc(-n2c(=O)c(C(=O)Nc3nnnn3C)nn(C)c2=O)cc1 [Compound 1.009]	5 (5=80-100%)
CC(Cl)c1ccc(-n2c(=O)c(C(=O)Nc3nnnn3C)nn(C)c2=O)cc1 (stereo not drawn) [Compound 1.010]	5 (5=80-100%)

Tested on: Solanum nigrum (SOLNI)
Assay: Herbicidal glasshouse test, post-emergence, SOLNI
Type: in vivo
Details: applied at 1000 g/h, evaluated after 13 days
Procedure: as §1

SMILES	POST Application SOLNI, percentage damage (five point scale)
CCc1ccc(-n2c(=O)c(C(=O)Nc3nnnn3C)nn(C)c2=O)cc1 [Compound 1.006]	5 (5=80-100%)
C=CCn1nc(C(=O)Nc2nnnn2C)c(=O)n(-c2cccc(F)c2)c1=O [Compound 1.007]	5 (5=80-100%)
Cn1nnnc1NC(=O)c1nn(C)c(=O)n(-c2ccc(F)c(Cl)c2)c1=O [Compound 1.008]	5 (5=80-100%)
CSc1ccc(-n2c(=O)c(C(=O)Nc3nnnn3C)nn(C)c2=O)cc1 [Compound 1.009]	5 (5=80-100%)
CC(Cl)c1ccc(-n2c(=O)c(C(=O)Nc3nnnn3C)nn(C)c2=O)cc1 (stereo not drawn) [Compound 1.010]	5 (5=80-100%)

Tested on: Amaranthus retoflexus (AMARE)
Assay: Herbicidal glasshouse test, pre-emergence, AMARE
Type: in vivo
Details: applied at 1000 g/h, evaluated after 13 days
Procedure: as §1

SMILES	PRE Application AMARE, percentage damage (five point scale)
CCc1ccc(-n2c(=O)c(C(=O)Nc3nnnn3C)nn(C)c2=O)cc1 [Compound 1.006]	5 (5=80-100%)
C=CCn1nc(C(=O)Nc2nnnn2C)c(=O)n(-c2cccc(F)c2)c1=O [Compound 1.007]	5 (5=80-100%)
Cn1nnnc1NC(=O)c1nn(C)c(=O)n(-c2ccc(F)c(Cl)c2)c1=O [Compound 1.008]	5 (5=80-100%)
CSc1ccc(-n2c(=O)c(C(=O)Nc3nnnn3C)nn(C)c2=O)cc1 [Compound 1.009]	5 (5=80-100%)
CC(Cl)c1ccc(-n2c(=O)c(C(=O)Nc3nnnn3C)nn(C)c2=O)cc1 (stereo not drawn) [Compound 1.010]	4 (4=60-79%)

Tested on: Ipomoea hederacea (IPOHE)
Assay: Herbicidal glasshouse test, pre-emergence, IPOHE
Type: in vivo
Details: applied at 1000 g/h, evaluated after 13 days
Procedure: as §1

SMILES	PRE Application IPOHE, percentage damage (five point scale)
CCc1ccc(-n2c(=O)c(C(=O)Nc3nnnn3C)nn(C)c2=O)cc1 [Compound 1.006]	5 (5=80-100%)
C=CCn1nc(C(=O)Nc2nnnn2C)c(=O)n(-c2cccc(F)c2)c1=O [Compound 1.007]	5 (5=80-100%)
Cn1nnnc1NC(=O)c1nn(C)c(=O)n(-c2ccc(F)c(Cl)c2)c1=O [Compound 1.008]	5 (5=80-100%)
CSc1ccc(-n2c(=O)c(C(=O)Nc3nnnn3C)nn(C)c2=O)cc1 [Compound 1.009]	4 (4=60-79%)
CC(Cl)c1ccc(-n2c(=O)c(C(=O)Nc3nnnn3C)nn(C)c2=O)cc1 (stereo not drawn) [Compound 1.010]	5 (5=80-100%)

Tested on: Echinochloa crus-galli (ECHCG)
Assay: Herbicidal glasshouse test, post-emergence, ECHCG
Type: in vivo
Details: applied at 1000 g/h, evaluated after 13 days
Procedure: as §1

SMILES	POST Application ECHCG, percentage damage (five point scale)
CCc1ccc(-n2c(=O)c(C(=O)Nc3nnnn3C)nn(C)c2=O)cc1 [Compound 1.006]	5 (5=80-100%)
C=CCn1nc(C(=O)Nc2nnnn2C)c(=O)n(-c2cccc(F)c2)c1=O [Compound 1.007]	5 (5=80-100%)
Cn1nnnc1NC(=O)c1nn(C)c(=O)n(-c2ccc(F)c(Cl)c2)c1=O [Compound 1.008]	5 (5=80-100%)
CSc1ccc(-n2c(=O)c(C(=O)Nc3nnnn3C)nn(C)c2=O)cc1 [Compound 1.009]	5 (5=80-100%)
CC(Cl)c1ccc(-n2c(=O)c(C(=O)Nc3nnnn3C)nn(C)c2=O)cc1 (stereo not drawn) [Compound 1.010]	5 (5=80-100%)
